Measurements published in patent US9029337B2, “Modulation of factor 7 expression” (Isis Pharmaceuticals, Inc., priority 2007, dated 2015).
Strand notation (5' to 3'): a small letter for the sugar, then the base; units joined by * are phosphorothioate-linked, units joined directly phosphodiester-linked; [ ] holds rarer units or linkages, { } end groups; capitals alone tell only the bases. e = 2'-O-(2-methoxyethyl) (MOE); [5mC] = 5-methylcytosine; d = 2'-deoxy (DNA)

Experiments:
Assay type in all cases: cell-based
human Factor 7 mRNA [1] = assay: Antisense inhibition of human Factor 7 mRNA in HepB3 cells, 50 nM antisense oligonucleotide, lipofectin; settings: Table 13 (microwalk), 50 nM, lipofectin, approximately 24 hours
Outline: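 Percent inhibition of Factor 7 mRNA, relative to untreated control, comes from real-time RT-PCR with RIBOGREEN normalization, using primer probe set RTS 2927 in some runs. RNA was taken roughly 24 h after lipofectin delivery of 50 nM oligonucleotide into HepB3 cells.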

human Factor 7 mRNA [2] = assay: Dose-dependent antisense inhibition of human Factor 7 in HepB3 cells, lipofectin; settings: HepB3 cells, approx. 16 hours (Table 14)
Experimental: Cells were plated at a density of 4,000 cells per well and treated with lipofectin reagent with 3.125 nM, 6.25 nM, 12.5 nM, 25 nM, 50 nM, and 100 nM concentrations of antisense oligonucleotide, as indicated in Table 3. After a treatment period of approximately 16 hours, RNA was isolated from the cells and Factor 7 mRNA levels were measured by real-time RT-PCR, as described herein. Human Factor 7 primer probe set RTS 2927 (forward sequence: […], incorporated herein as SEQ ID NO: 164; reverse sequence: […], incorporated herein as SEQ ID NO: 165; probe sequence: TGGGTGGTCTCCGCGGCCX, incorporated herein as SEQ ID NO: 166) was used to measure mRNA levels. Factor 7 mRNA levels were adjusted according to total RNA content as measured by RIBOGREEN®. Results are presented as percent inhibition of Factor 7, relative to untreated control cells.
Cells were plated at a density of 4,000 cells per well and transfected using lipofectin reagent with 6.25 nM, 12.5 nM, 25.0 nM, 50.0 nM, and 100.0 nM concentrations of antisense oligonucleotide, as indicated in Table 7. After a treatment period of approximately 16 hours, RNA was isolated from the cells and Factor 7 mRNA levels were measured by real-time RT-PCR, as described herein. Human Factor 7 primer probe set RTS 2927 was used to measure mRNA levels. Factor 7 mRNA levels were adjusted according to total RNA content as measured by RIBOGREEN®. Results are presented as percent inhibition of Factor 7, relative to untreated control cells.
(§1) Cells were plated at a density of 4,000 cells per well and transfected using lipofectin reagent with 3.125 nM, 6.25 nM, 12.5 nM, 25 nM, 50 nM, and 100 nM concentrations of antisense oligonucleotide, as specified in Table 14. After a treatment period of approximately 16 hours, RNA was isolated from the cells and Factor 7 mRNA levels were measured by quantitative real-time PCR. Human Factor 7 primer probe set RTS 2927 was used to measure mRNA levels. Factor 7 mRNA levels were adjusted according to total RNA content, as measured by RIBOGREEN®. Results are presented as percent inhibition of Factor 7, relative to untreated control cells.

human Factor 7 mRNA [3] = assay: Dose-dependent antisense inhibition of human Factor 7 in HepB3 cells, electroporation
Experimental: as §1, with “The gapmers were also transfected via electroporation and their dose-dependent inhibition of human Factor 7 mRNA was measured. Cells” for “Cells”, “20,000” for “4,000”, “via electroporation” for “using lipofectin reagent”, “μM,” for “nM,”, “μM” for “nM”, “15.” for “14.”
Cells were plated at a density of 20,000 cells per well and transfected via electroporation with 3.125 μM, 6.25 μM, 12.5 μM, 25 μM, 50 μM, and 100 μM concentrations of antisense oligonucleotide, as specified in […]. After a treatment period of approximately 16 hours, RNA was isolated from the cells and human Factor 7 mRNA levels were measured by quantitative real-time PCR. Human Factor 7 primer probe set RTS 2927 was used to measure mRNA levels. Factor 7 mRNA levels were adjusted according to total RNA content, as measured by RIBOGREEN®. Results are presented as percent inhibition of Factor 7, relative to untreated control cells.

human Factor 7 mRNA [4] = assay: Antisense inhibition of human Factor 7 with short (14-mer) oligonucleotides in HepB3 cells, electroporation 1,000 nM; settings: electroporation, 1,000 nM antisense oligonucleotide, approximately 24 hours, Factor 7 mRNA relative to untreated control cells
Outline: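 14-mer 2-10-2 MOE gapmers (full phosphorothioate, 5-methyl-C) electroporated at 1,000 nM into HepB3 cells at 20,000 cells/well. After ~24 h, Factor 7 mRNA by real-time RT-PCR, normalized to RiboGreen total RNA. Reported as % inhibition relative to untreated cells.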

| Substance | % Inhibition (human Factor 7 mRNA [4]) | also measured |
| --- | --- | --- |
| 422086 (antisense eT*eG*e[5mC]*eA*eT*dG*dG*dT*dG*dA*dT*dG*d[5mC]*dT*dT*e[5mC]*eT*eG*eA*eA) [compound 422086] | – | % Inhibition (human Factor 7 mRNA [1]): 81%; percent inhibition of Factor 7 mRNA, relative to untreated control cells (human Factor 7 mRNA [2]; 3.125 nM): 8%; percent inhibition of Factor 7 mRNA, relative to untreated control cells (human Factor 7 mRNA [2]; 12.5 nM): 46%; percent inhibition of Factor 7 mRNA, relative to untreated control cells (human Factor 7 mRNA [2]; 25 nM): 65%; percent inhibition of Factor 7 mRNA, relative to untreated control cells (human Factor 7 mRNA [2]; 50 nM): 83%; percent inhibition of Factor 7 mRNA, relative to untreated control cells (human Factor 7 mRNA [2]; 100 nM): 90%; percent inhibition of Factor 7 mRNA, relative to untreated control cells (human Factor 7 mRNA [2]): 26%; percent inhibition of Factor 7 mRNA, relative to untreated control cells (human Factor 7 mRNA [3]; 3.125 μM, approx. 16 hours (Table 15, Example 7)): 20%; percent inhibition of Factor 7 mRNA, relative to untreated control cells (human Factor 7 mRNA [3]; 3.125 μM, approx. 16 hours (Table 16, Example 8 confirmation)): 25%; percent inhibition of Factor 7 mRNA, relative to untreated control cells (human Factor 7 mRNA [3]; 6.25 μM, approx. 16 hours (Table 15, Example 7)): 34%; percent inhibition of Factor 7 mRNA, relative to untreated control cells (human Factor 7 mRNA [3]; 6.25 μM, approx. 16 hours (Table 16, Example 8 confirmation)): 48%; percent inhibition of Factor 7 mRNA, relative to untreated control cells (human Factor 7 mRNA [3]; 12.5 μM, approx. 16 hours (Table 15, Example 7)): 44%; percent inhibition of Factor 7 mRNA, relative to untreated control cells (human Factor 7 mRNA [3]; 12.5 μM, approx. 16 hours (Table 16, Example 8 confirmation)): 74%; percent inhibition of Factor 7 mRNA, relative to untreated control cells (human Factor 7 mRNA [3]; 25 μM, approx. 16 hours (Table 15, Example 7)): 63%; percent inhibition of Factor 7 mRNA, relative to untreated control cells (human Factor 7 mRNA [3]; 25 μM, approx. 16 hours (Table 16, Example 8 confirmation)): 82%; percent inhibition of Factor 7 mRNA, relative to untreated control cells (human Factor 7 mRNA [3]; 50 μM, approx. 16 hours (Table 15, Example 7)): 75%; percent inhibition of Factor 7 mRNA, relative to untreated control cells (human Factor 7 mRNA [3]; 50 μM, approx. 16 hours (Table 16, Example 8 confirmation)): 86%; percent inhibition of Factor 7 mRNA, relative to untreated control cells (human Factor 7 mRNA [3]; 100 μM, approx. 16 hours (Table 15, Example 7)): 84%; percent inhibition of Factor 7 mRNA, relative to untreated control cells (human Factor 7 mRNA [3]; 100 μM, approx. 16 hours (Table 16, Example 8 confirmation)): 90% |
| 435825 (antisense e[5mC]*eT*dG*dG*dT*dT*dT*dT*dG*dG*dA*dG*eG*eA) [compound 435825] | 0% | – |
| 435826 (antisense eA*eA*dG*dT*dG*dG*d[5mC]*dT*dG*dG*d[5mC]*dT*eG*eA) [compound 435826] | 27% | – |
| 435827 (antisense eT*e[5mC]*dA*dG*dA*dA*dA*dG*dA*dT*dG*d[5mC]*eA*eG) [compound 435827] | 5% | – |
| 435828 (antisense eG*eA*d[5mC]*d[5mC]*dT*dG*d[5mC]*d[5mC]*d[5mC]*dA*dT*dT*eT*eT) [compound 435828] | 0% | – |
| 435829 (antisense eG*eG*dG*dT*dA*dG*dA*d[5mC]*d[5mC]*d[5mC]*dT*d[5mC]*eA*eG) [compound 435829] | 18% | – |
| 435830 (antisense eT*eG*dA*dT*dT*dT*dT*dG*d[5mC]*dA*dA*dA*eG*eA) [compound 435830] | 0% | – |
| 435831 (antisense eG*eA*dT*d[5mC]*dT*dT*d[5mC]*dA*d[5mC]*dA*dT*dA*eG*e[5mC]) [compound 435831] | 51% | – |
| 435832 (antisense eT*eG*d[5mC]*dT*d[5mC]*dA*dG*dA*d[5mC]*d[5mC]*dT*dG*eG*e[5mC]) [compound 435832] | 70% | – |
| 435833 (antisense eA*eG*dA*d[5mC]*dA*d[5mC]*dT*dT*dG*dA*dG*dA*eG*e[5mC]) [compound 435833] | 24% | – |
| 435834 (antisense eT*eG*dA*d[5mC]*dA*dG*d[5mC]*dA*d[5mC]*dG*dA*dA*eG*e[5mC]) [compound 435834] | 20% | – |
| 435835 (antisense eT*eT*dA*dT*dT*dT*dG*dG*dG*d[5mC]*dA*dT*eG*eG) [compound 435835] | 7% | – |
| 435836 (antisense e[5mC]*eT*dA*dG*dG*dT*d[5mC]*dT*dG*d[5mC]*dA*dG*eG*eG) [compound 435836] | 41% | – |
| 435837 (antisense e[5mC]*eT*d[5mC]*dG*d[5mC]*d[5mC]*dT*dG*dG*dA*dA*dG*eG*eA) [compound 435837] | 37% | – |
| 435838 (antisense eT*e[5mC]*d[5mC]*dA*dT*dG*dG*dA*d[5mC]*dA*d[5mC]*dT*eA*eA) [compound 435838] | 29% | – |
| 435839 (antisense eG*eG*dT*d[5mC]*dA*dG*d[5mC]*dT*dG*dG*dT*d[5mC]*eT*eG) [compound 435839] | 14% | – |
| 435840 (antisense eG*eG*dG*d[5mC]*d[5mC]*d[5mC]*dG*d[5mC]*d[5mC]*dA*d[5mC]*dT*eG*eG) [compound 435840] | 0% | – |
| 435841 (antisense e[5mC]*eT*d[5mC]*dG*dG*dA*d[5mC]*dA*dA*dA*dA*dG*eA*eG) [compound 435841] | 1% | – |
| 435842 (antisense eA*eT*dT*dT*d[5mC]*d[5mC]*d[5mC]*dA*dT*dT*dG*dG*e[5mC]*eA) [compound 435842] | 0% | – |
| 435843 (antisense eG*e[5mC]*dT*dG*dG*dA*dG*d[5mC]*dT*dG*dA*dG*e[5mC]*e[5mC]) [compound 435843] | 0% | – |
| 435844 (antisense eT*eG*dG*d[5mC]*d[5mC]*dA*dG*dT*dG*dG*d[5mC]*d[5mC]*eT*e[5mC]) [compound 435844] | 30% | – |
| 435845 (antisense eG*e[5mC]*dT*d[5mC]*dA*dT*dG*dG*d[5mC]*dA*dG*dA*e[5mC]*eA) [compound 435845] | 21% | – |
| 435846 (antisense eT*eG*dG*dA*dG*dA*dG*dA*d[5mC]*d[5mC]*dA*dA*eT*eG) [compound 435846] | 7% | – |
| 435847 (antisense eT*eG*dG*dT*dG*dT*dG*d[5mC]*dA*d[5mC]*dA*d[5mC]*eA*eT) [compound 435847] | 36% | – |
| 435848 (antisense eT*eG*dG*d[5mC]*d[5mC]*dA*d[5mC]*dT*dG*d[5mC]*d[5mC]*dT*e[5mC]*eA) [compound 435848] | 32% | – |
| 435849 (antisense eT*eG*d[5mC]*d[5mC]*dG*dT*dA*dG*dT*dG*dG*d[5mC]*e[5mC]*eG) [compound 435849] | 31% | – |
| 435850 (antisense e[5mC]*eT*dT*dG*dG*d[5mC]*d[5mC]*dA*dG*dT*dG*dT*eG*eG) [compound 435850] | 15% | – |
| 435851 (antisense eA*e[5mC]*dA*dG*dG*d[5mC]*d[5mC]*dA*dG*dG*d[5mC]*dT*eG*eG) [compound 435851] | 0% | – |
